US9896434B2, “Substituted indanone compounds as GPR119 modulators for the treatment of diabetes, obesity, dyslipidemia and related disorders” (SANOFI, priority 2014, dated 2018)

target: T1, human GPR119 (Homo sapiens, UniProt Q8TDV5); assay: Functional cellular assay measuring GPR119-mediated cAMP release (HTRF); type: cell-based; conditions: HEK-293 cell line stably expressing recombinant human GPR119; cAMP response, 30 minutes at room temperature
T1 construct: expressed in transfected cells
T1 sequence (Q8TDV5 1-335): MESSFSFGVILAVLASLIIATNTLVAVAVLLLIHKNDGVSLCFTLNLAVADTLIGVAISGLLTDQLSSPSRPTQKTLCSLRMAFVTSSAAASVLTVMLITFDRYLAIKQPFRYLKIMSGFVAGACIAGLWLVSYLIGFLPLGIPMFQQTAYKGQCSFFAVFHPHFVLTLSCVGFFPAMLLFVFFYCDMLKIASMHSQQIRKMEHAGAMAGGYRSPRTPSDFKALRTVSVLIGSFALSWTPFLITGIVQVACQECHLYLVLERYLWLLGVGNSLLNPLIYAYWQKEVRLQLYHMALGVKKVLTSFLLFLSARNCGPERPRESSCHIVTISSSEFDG
Description: Functional Cellular Assays Measuring GPR119-Mediated cAMP Release
Compounds of the invention, which are agonists of GPR119, were characterized by functional assays measuring the cAMP response of HEK-293 cell lines stably expressing recombinant GPR119 from man, mouse or rat, or by using a hamster cell line HIT-T15 expressing GPR119 endogenously. The cAMP content was determined using a kit based on homogenous time-resolved fluorescence (HTRF) from Cisbio Corp. (cat. no. 62AM4PEC). For preparation, cells were split into T175 culture flasks and grown to near confluency in medium (DMEM/10% FCS for HEK-293 cells, and F-12K medium/10% horse serum/2.5% FCS for HIT-T15 cells, respectively). Medium was then removed and cells washed with PBS lacking calcium and magnesium ions, followed by proteinase treatment with accutase (Sigma-Aldrich, cat. no. A6964). Detached cells were washed and resuspended in assay buffer (1×HBSS; 20 mM HEPES, 0.1% BSA, 2 mM IBMX) and cellular density determined. They were then diluted to 400000 cells/mL and 25 μL-aliquots dispensed to the wells of 96-well plates. For measurement, 25 μL of test compound in assay buffer was added and incubated for 30 minutes at room temperature. After addition of HTRF reagents diluted in lysis buffer, the plates were incubated for 1 hour, followed by measuring the fluorescence ratio at 665 vs. 620 nm. Potency of the agonists was quantified by determining the concentrations that caused 50% of the maximal response/activation (EC50). See Table 4 for exemplary data obtained using the cell line expressing human GPR119.

Row | SMILES | EC50
1 | COC(=O)CC1CC(=O)c2cc(N3CC[C@@H](Oc4ccc(OCC5CC5)nc4)C3=O)ccc21 (stereo partly drawn) [Example 1-06, methyl 2-[5-[(3R)-3-[[6-(cyclopropylmethoxy)-3-pyridyl]oxy]-2-oxo-pyrrolidin-1-yl]-3-oxo-indan-1-yl]acetate] | 19 nM
2 | CN(C)C(=O)CC1Cc2c(F)cc(N3CC[C@@H](Oc4ccc(OCC5CC5)nc4)C3=O)cc2C1=O (stereo partly drawn) [Example 3-06, 2-[6-[(3R)-3-[[6-(cyclopropylmethoxy)-3-pyridyl]oxy]-2-oxo-pyrrolidin-1-yl]-4-fluoro-1-oxo-indan-2-yl]-N,N-dimethyl-acetamide] | 46 nM
3 | COC(=O)CC1Cc2c(F)cc(N3CC[C@@H](Oc4ccc(OCC5CC5)nc4)C3=O)cc2C1=O (stereo partly drawn) [Example 1-04, {6-[(R)-3-(6-cyclopropylmethoxy-pyridin-3-yloxy)-2-oxo-pyrrolidin-1-yl]-4-fluoro-1-oxo-indan-2-yl}-acetic acid methyl ester] | 14 nM
4 | COC(=O)CC1CC(=O)c2cc(N3CC[C@@H](Oc4ccc(OC5CC5)nc4)C3=O)ccc21 (stereo partly drawn) [Example 1-13, methyl 2-[5-[(3R)-3-[[6-(cyclopropoxy)-3-pyridyl]oxy]-2-oxo-pyrrolidin-1-yl]-3-oxo-indan-1-yl]acetate] | 98 nM
5 | O=C1c2cc(N3CC[C@@H](Oc4ccc(OCC5CC5)nc4)C3=O)cc(F)c2CC1CCO (stereo partly drawn) [Example 1-05, (3R)-3-[[6-(cyclopropylmethoxy)-3-pyridyl]oxy]-1-[7-fluoro-2-(2-hydroxyethyl)-3-oxo-indan-5-yl]pyrrolidin-2-one] | 233 nM
6 | NC(=O)CC1CC(=O)c2cc(N3CC[C@@H](Oc4ccc(OCC5CC5)nc4)C3=O)cc(F)c21 (stereo partly drawn) [Example 3-10, 2-[5-[(3R)-3-[[6-(cyclopropylmethoxy)-3-pyridyl]oxy]-2-oxo-pyrrolidin-1-yl]-7-fluoro-3-oxo-indan-1-yl]acetamide] | 73 nM
7 | COC(=O)C1Cc2ccc(N3CC[C@@H](Oc4ccc(OCC5CC5)nc4)C3=O)cc2C1=O (stereo partly drawn) [Example 1-10, methyl 6-[(3R)-3-[[6-(cyclopropylmethoxy)-3-pyridyl]oxy]-2-oxo-pyrrolidin-1-yl]-1-oxo-indane-2-carboxylate] | 41 nM
8 | O=C(CC1Cc2c(F)cc(N3CC[C@@H](Oc4ccc(OCC5CC5)nc4)C3=O)cc2C1=O)NCCO (stereo partly drawn) [Example 3-09, 2-{6-[(R)-3-(6-cyclopropylmethoxy-pyridin-3-yloxy)-2-oxo-pyrrolidin-1-yl]-4-fluoro-1-oxo-indan-2-yl}-N-(2-hydroxy-ethyl)-acetamide] | 289 nM
9 | O=C(CC1CC(=O)c2cc(N3CC[C@@H](Oc4ccc(OCC5CC5)nc4)C3=O)ccc21)NC1CC1 (stereo partly drawn) [Example 3-03, N-cyclopropyl-2-[5-[(3R)-3-[[6-(cyclopropylmethoxy)-3-pyridyl]oxy]-2-oxo-pyrrolidin-1-yl]-3-oxo-indan-1-yl]acetamide] | 339 nM
10 | O=C(O)CC1CC(=O)c2cc(N3CC[C@@H](Oc4ccc(OCC5CC5)nc4)C3=O)ccc21 (stereo partly drawn) [Example 2-02, {5-[(R)-3-(6-Cyclopropylmethoxy-pyridin-3-yloxy)-2-oxo-pyrrolidin-1-yl]-3-oxo-indan-1-yl}-acetic acid] | 135 nM
11 | CN(C)C(=O)C1CC(=O)c2cc(N3CC[C@@H](Oc4ccc(OCC5CC5)nc4)C3=O)cc(F)c21 (stereo partly drawn) [Example 1-16, 5-[(3R)-3-[[6-(cyclopropylmethoxy)-3-pyridyl]oxy]-2-oxo-pyrrolidin-1-yl]-7-fluoro-N,N-dimethyl-3-oxo-indane-1-carboxamide] | 117 nM
12 | CNC(=O)CC1CC(=O)c2cc(N3CC[C@@H](Oc4ccc(OCC5CC5)nc4)C3=O)ccc21 (stereo partly drawn) [Example 3-02, 2-[5-[(3R)-3-[[6-(cyclopropylmethoxy)-3-pyridyl]oxy]-2-oxo-pyrrolidin-1-yl]-3-oxo-indan-1-yl]-N-methyl-acetamide] | 188 nM
13 | CN(C)C(=O)CC1CC(=O)c2cc(N3CC[C@@H](Oc4ccc(OCC5CC5)nc4)C3=O)ccc21 (stereo partly drawn) [Example 3-01, 2-[5-[(3R)-3-[[6-(cyclopropylmethoxy)-3-pyridyl]oxy]-2-oxo-pyrrolidin-1-yl]-3-oxo-indan-1-yl]-N,N-dimethyl-acetamide] | 82 nM
14 | COC(=O)CC1Cc2ccc(N3CC[C@@H](Oc4ccc(OCC5CC5)nc4)C3=O)cc2C1=O (stereo partly drawn) [Example 1-12, methyl 2-[6-[(3R)-3-[[6-(cyclopropylmethoxy)-3-pyridyl]oxy]-2-oxo-pyrrolidin-1-yl]-1-oxo-indan-2-yl]acetate] | 29 nM
15 | O=C1CC(CO)c2c(F)cc(N3CC[C@@H](Oc4ccc(OCC5CC5)nc4)C3=O)cc21 (stereo partly drawn) [Example 1-17, (3R)-3-[[6-(cyclopropylmethoxy)-3-pyridyl]oxy]-1-[7-fluoro-1-(hydroxymethyl)-3-oxo-indan-5-yl]pyrrolidin-2-one] | 72 nM
16 | COC(=O)CC1CC(=O)c2cc(N3CC[C@@H](Oc4ccc(OCC5CC5)nc4)C3=O)cc(F)c21 (stereo partly drawn) [Example 1-09, methyl 2-[5-[(3R)-3-[[6-(cyclopropylmethoxy)-3-pyridyl]oxy]-2-oxo-pyrrolidin-1-yl]-7-fluoro-3-oxo-indan-1-yl]acetate] | 12 nM
17 | O=C1CC(CCO)c2ccc(N3CC[C@@H](Oc4ccc(OCC5CC5)nc4)C3=O)cc21 (stereo partly drawn) [Example 1-08, (3R)-3-[[6-(cyclopropylmethoxy)-3-pyridyl]oxy]-1-[1-(2-hydroxyethyl)-3-oxo-indan-5-yl]pyrrolidin-2-one] | 79 nM
18 | COC(=O)C[C@H]1CC(=O)c2cc(N3CC[C@@H](Oc4ccc(OCC5CC5)nc4)C3=O)ccc21 [Example 1-15, methyl 2-[(1R)-5-[(3R)-3-[[6-(cyclopropylmethoxy)-3-pyridyl]oxy]-2-oxo-pyrrolidin-1-yl]-3-oxo-indan-1-yl]acetate] | 16 nM
19 | COC(=O)CC1CC(=O)c2cc(N3CC[C@@H](Oc4ccc(Oc5ccc(F)cc5)cc4)C3=O)ccc21 (stereo partly drawn) [Example 1-03, methyl 2-[5-[(3R)-3-[4-(4-fluorophenoxy)phenoxy]-2-oxo-pyrrolidin-1-yl]-3-oxo-indan-1-yl]acetate] | 111 nM
20 | COC(=O)CC1CC(=O)c2cc(N3CC[C@@H](Oc4ccc(OC5CC5)nc4)C3=O)cc(F)c21 (stereo partly drawn) [Example 1-11, methyl 2-[5-[(3R)-3-[[6-(cyclopropoxy)-3-pyridyl]oxy]-2-oxo-pyrrolidin-1-yl]-7-fluoro-3-oxo-indan-1-yl]acetate] | 38 nM
21 | COC(=O)CC1(CC(=O)O)Cc2c(F)cc(N3CC[C@@H](Oc4ccc(OCC5CC5)nc4)C3=O)cc2C1=O (stereo partly drawn) [Example 1-07, 2-[6-[(3R)-3-[[6-(cyclopropylmethoxy)-3-pyridyl]oxy]-2-oxo-pyrrolidin-1-yl]-4-fluoro-2-(2-methoxy-2-oxo-ethyl)-1-oxo-indan-2-yl]acetic acid] | 332 nM
22 | NC(=O)CC1CC(=O)c2cc(N3CC[C@@H](Oc4ccc(OCC5CC5)nc4)C3=O)ccc21 (stereo partly drawn) [Example 3-04, 2-[5-[(3R)-3-[[6-(cyclopropylmethoxy)-3-pyridyl]oxy]-2-oxo-pyrrolidin-1-yl]-3-oxo-indan-1-yl]acetamide] | 320 nM
23 | O=C(O)C[C@@H]1CC(=O)c2cc(N3CC[C@@H](Oc4ccc(OCC5CC5)nc4)C3=O)ccc21 [Example 2-05, 2-[(1S)-5-[(3R)-3-[[6-(cyclopropylmethoxy)-3-pyridyl]oxy]-2-oxo-pyrrolidin-1-yl]-3-oxo-indan-1-yl]acetic acid] | 1990 nM
24 | O=C(O)CC1CC(=O)c2cc(N3CC[C@@H](Oc4ccc(OCC5CC5)nc4)C3=O)cc(F)c21 (stereo partly drawn) [Example 2-03, 2-[5-[(3R)-3-[[6-(cyclopropylmethoxy)-3-pyridyl]oxy]-2-oxo-pyrrolidin-1-yl]-7-fluoro-3-oxo-indan-1-yl]acetic acid] | 218 nM
25 | O=C(O)C[C@H]1CC(=O)c2cc(N3CC[C@@H](Oc4ccc(OCC5CC5)nc4)C3=O)ccc21 [Example 2-04, 2-[5-[(3R)-3-[[6-(cyclopropylmethoxy)-3-pyridyl]oxy]-2-oxo-pyrrolidin-1-yl]-3-oxo-indan-1-yl]acetic acid] | 505 nM
26 | O=C1c2cc(N3CC[C@@H](Oc4ccc(OCC5CC5)nc4)C3=O)cc(F)c2CC1CC(=O)N1CCOCC1 (stereo partly drawn) [Example 3-07, (3R)-3-[[6-(cyclopropylmethoxy)-3-pyridyl]oxy]-1-[7-fluoro-2-(2-morpholino-2-oxo-ethyl)-3-oxo-indan-5-yl]pyrrolidin-2-one] | 83 nM
27 | CNC(=O)CC1Cc2c(F)cc(N3CC[C@@H](Oc4ccc(OCC5CC5)nc4)C3=O)cc2C1=O (stereo partly drawn) [Example 3-08, 2-[6-[(3R)-3-[[6-(cyclopropylmethoxy)-3-pyridyl]oxy]-2-oxo-pyrrolidin-1-yl]-4-fluoro-1-oxo-indan-2-yl]-N-methyl-acetamide] | 66 nM
